Results: patent US20250345492A1, “AN ANTIBACTERIAL POLYPEPTIDE COMPOUND, A MEDICAL DEVICE, HYDROGEL AND USE THEREOF” (priority 2020, published 2025)
Ends that are not written are not given here.

Tests used:
[1] = tested on: mouse mononuclear macrophage RAW264.7; test: Cytotoxicity, MTT colorimetry; assay type: cell-based
Method: (§1) For cytotoxicity determination, the MTT colorimetry was used to evaluate the effects of the compounds on the proliferation of human cervical cancer cell Hela, human embryonic renal epithelial cell HEK293 and mouse mononuclear macrophage RAW264.7.
(§2) Taking compounds 2, 8, 9, 13 and 15 of the present invention as examples, the cytotoxicity of the antibacterial polypeptide compounds was analyzed. Three cell lines were employed for the present invention, namely human cervical cancer cell Hela, human embryonic renal epithelial cell HEK293 and mouse mononuclear macrophage RAW264.7. Hela cells were cultured in RPMI 1640 medium with 10% newborn calf serum, HEK293 cells and RAW264.7 cells were cultured in DMEM medium with 10% fetal bovine serum. Simply, cells (1×10^4 cells/well) were inoculated to a 96-well plate and incubated in an incubator set to 5% CO2 at 37° C. After 24 hours, compounds of different concentrations were added and incubated in the 5% CO2 incubator. After 24 hours, 20 μL of MTT solution with a concentration of 5 mg/mL was added to each well and incubated for 4 hours. After that, the medium was removed with a pipet, and 150 μL of DMSO added to dissolve the purple-blue formazan crystals. The solution was shaken in an oscillator for 5 mins before detecting the absorbance value at 570 nm using the ELISA reader, and then the survival rate was calculated with the formula: (OD dosing group/OD control group)×100% (n=3).

[2] = tested on: human embryonic renal epithelial cell HEK293; test: Cytotoxicity, MTT colorimetry; assay type: cell-based
Method: as §1, §2

[3] = tested on: human cervical cancer cell Hela; test: Cytotoxicity, MTT colorimetry; assay type: cell-based
Method: as §1, §2

[4] = tested on: C. albicans ATCC14053; details: ATCC14053
From the text: (§3) With respect to the determination of antibacterial activity and antifungal activity of the antibacterial polypeptide compounds, the bacterial strains employed included: E. coli (ATCC 25922), E. coli (ATCC 43837), Pseudomonas aeruginosa (ATCC 27853), Klebsiella pneumoniae (ATCC 700603), Cronobacter sakazakii (ATCC 29544), Staphylococcus aureus (ATCC 29213), Bacillus subtilis (ATCC 23857) and Staphylococcus epidermidis (ATCC 12228); and the fungal strains employed included Candida albicans (ATCC 14053), Candida glabrata (ATCC 2001), Candida parapsilosis (ATCC 22019), Candida tropicalis (ATCC 750) and Candida krusei (ATCC 6258), all of which were standard strains from American Type Culture Collection. In addition, drug-resistant strains S-1a, S-2a, S-3a, S-4a, E-1b, E-2b, E-3b, E-4b, E-5b, P-1c, P-2c, P-3c, P-4c, P-5c, and clinically isolated fungal strains Candida glabrata 2-1 and Candida albicans 14-1, 14-2 and 14-3 were employed, all which were clinically isolated.
(§4) Simply, a proper amount of the cryopreserved bacterium or fungus was added to fresh MH/SD medium, and cultured on a shaker overnight at 180 rpm at 37° C. The obtained cells were seeded again and cultured on a shaker for 4-5 hours to obtain cells in logarithmic phase. The resulting cells were added to a 96-well plate (1×10^5 CFU/ml, 100 μL/well), and then 100 μL of polypeptide with different concentrations (1-256 μM) twice the final concentrations was added to corresponding well according to the 2-fold serial dilution method. The fresh medium was used as a negative control, which was prepared in triplicate for each concentration. After dosing, the 96-well plate was placed in an incubator at constant 37° C. and humidity for 12 hours to observe the results. According to naked eye observations, the concentration of the compound in the first transparent well following the turbid wells was recorded as the MIC of the compound, namely, the MIC value of the compound to the bacterium or fungus.

[5] = tested on: P-5c, clinical isolated drug-resistant strain PA; details: strain P-5c (PA)
From the text: as §3, §4

[6] = tested on: S-2a, clinical isolated drug-resistant strain MRSA; details: strain S-2a (MRSA)
From the text: as §3, §4

[7] = tested on: E. coli (ATCC 25922); details: ATCC 25922
From the text: as §3, §4

[8] = tested on: Cronobacter sakazakii (ATCC 29544); details: ATCC 29544
From the text: as §3, §4

[9] = tested on: S-1a, clinical isolated drug-resistant strain MRSA; details: strain S-1a (MRSA)
From the text: as §3, §4

[10] = tested on: Staphylococcus epidermidis (ATCC 12228); details: ATCC 12228
From the text: as §3, §4

[11] = tested on: S-3a, clinical isolated drug-resistant strain MRSA; details: strain S-3a (MRSA)
From the text: as §3, §4

[12] = tested on: C. parapsilosis ATCC2001; details: ATCC2001
From the text: as §3, §4

[13] = tested on: E-2b, clinical isolated drug-resistant strain ESBL; details: strain E-2b (ESBL)
From the text: as §3, §4

[14] = tested on: Staphylococcus aureus (ATCC 29213); details: ATCC 29213
From the text: as §3, §4

[15] = tested on: P-4c, clinical isolated drug-resistant strain PA; details: strain P-4c (PA)
From the text: as §3, §4

[16] = tested on: E-4b, clinical isolated drug-resistant strain ESBL; details: strain E-4b (ESBL)
From the text: as §3, §4

[17] = tested on: P-2c, clinical isolated drug-resistant strain PA; details: strain P-2c (PA)
From the text: as §3, §4

[18] = tested on: S-4a, clinical isolated drug-resistant strain MRSA; details: strain S-4a (MRSA)
From the text: as §3, §4

[19] = tested on: Bacillus subtilis (ATCC 23857); details: ATCC 23857
From the text: as §3, §4

[20] = tested on: E-1b, clinical isolated drug-resistant strain ESBL; details: strain E-1b (ESBL)
From the text: as §3, §4

[21] = tested on: E-5b, clinical isolated drug-resistant strain ESBL; details: strain E-5b (ESBL)
From the text: as §3, §4

[22] = tested on: C. krusei ATCC6258; details: ATCC6258
From the text: as §3, §4

[23] = tested on: P-3c, clinical isolated drug-resistant strain PA; details: strain P-3c (PA)
From the text: as §3, §4

[24] = tested on: Pseudomonas aeruginosa (ATCC 27853); details: standard strain
From the text: as §3, §4

[25] = tested on: P-1c, clinical isolated drug-resistant strain PA; details: strain P-1c (PA)
From the text: as §3, §4

[26] = tested on: C. tropicalis ATCC750; details: ATCC750
From the text: as §3, §4

[27] = tested on: C. glabrata ATCC22019; details: ATCC22019
From the text: as §3, §4

[28] = tested on: E-3b, clinical isolated drug-resistant strain ESBL; details: strain E-3b (ESBL)
From the text: as §3, §4

[29] = Acute toxicity in mice; set-up: species or system Kunming mice; details: mouse, in vivo, ip, intraperitoneal injection, Karber method
Method: Acute toxicity of the compounds was determined by measuring the acute toxicity in mice with the compounds.
Taking compounds 2, 8, 9, 13 and 15 of the present invention as examples, […]. The mice used in this test were Kunming mice, which were placed in constant-temperature environment (22±1° C.) and could freely obtain water and food. Simply, 132 healthy Kunming mice were randomly divided into 11 groups, with 12 mice in each group (half male and half female), wherein, 5 groups were intraperitoneally injected with 0.2 ml of the compounds of different doses (100-1000 mg/kg), and the control group was intraperitoneally injected with normal saline. In this experiment, melittin was used as a reference control, and the other 5 groups were intraperitoneally injected with melittin of different doses (10-32 mg/kg). The state of mice was observed and recorded after 2 hours of administration, and then observed twice a day for 14 days, and the survival rates of the mice were recorded.

[30] = tested on: E. coli (ATCC 25922); test: Mouse septic peritonitis model, survival; assay type: in vivo, Kunming mice; details: 20 mg/kg intraperitoneally one hour after E. coli inoculation, 7 days of observation
Method: The determination of the in vivo antibacterial activity of the antibacterial polypeptide compounds is to reflect the antibacterial activity in vivo by detecting the survival rate of mice infected with bacteria or fungi.
Taking compounds 2, 8, 9, 13 and 15 of the present invention as examples, the in vivo antibacterial effects of the antibacterial polypeptide compounds were analyzed. The mice used in this test were Kunming mice, which were placed in constant-temperature environment (22±1° C.). Simply, 36 Kunming mice (18-22 g of body weight) were randomly divided into 6 groups and intraperitoneally injected with 0.2 ml of 3×10^8 CFU/mL E. coli (ATCC 25922) on Day 1 to establish mouse septic peritonitis model. The mice were administered intraperitoneally one hour after inoculation with the bacteria, and then the compounds 2, 8, 9, 13 and 15 were injected intraperitoneally at a dose of 20 mg/kg of body weight. Polymyxin B (20 mg/kg) was selected as a positive reference control, and a negative control group received intraperitoneal injection of sterile saline. After 7 days of observation, the survival rates of mice in administration groups and control groups were calculated to create survival curves.

[31] = tested on: mouse red blood cells
Method: The hemolytic activity was determined by measuring a hemolytic concentration for mouse red blood cells with the antibacterial polypeptide compounds.
The mouse red blood cells was diluted to a concentration of 8%, the obtained red blood cell suspension was added to a 96-well plate (100 μL per well), and then 100 μL of one compound was added to a corresponding well. After incubation for 1 hour, the supernatant of each well was added to another 96-well plate, and then the absorbance value of the sample supernatant was measured at 490 nm using a ELISA reader. With regard to the present invention, PBS and 2% Triton-X 100 were used as a negative control and a positive control, separately.

PWRLRLRL-NH2 [Compound 15]
effect on proliferation (inhibitory activity) [1]: no inhibitory activity
effect on proliferation (inhibitory activity) [2]: no inhibitory activity
effect on proliferation (inhibitory activity) [3]: no inhibitory activity
MIC C. albicans ATCC14053 [4]: 4 µM
MIC [5]: 8 µM
MIC [6]: 8 µM
MIC C. coli ATCC25922 [7]: 4 µM
MIC C. sakazakii ATCC29544 [8]: 8 µM
MIC [9]: 8 µM
MIC S. epidermidis ATCC12228 [10]: 8 µM
MIC [11]: 8 µM
MIC C. parapsilosis ATCC2001 [12]: 4 µM
MIC [13]: 4 µM
MIC S. aureus ATCC29213 [14]: 8 µM
MIC [15]: 8 µM
MIC [16]: 4 µM
MIC [17]: 8 µM
MIC [18]: 8 µM
MIC B. subtilis ATCC23857 [19]: 4 µM
MIC [20]: 4 µM
MIC [21]: 4 µM
MIC C. krusei ATCC6258 [22]: 16 µM
MIC [23]: 8 µM
MIC P. aerugmosa ATCC27853 [24]: 8 µM
MIC [25]: 8 µM
MIC C. tropicalis ATCC750 [26]: 4 µM
MIC C. glabrata ATCC22019 [27]: 4 µM
MIC [28]: 4 µM
LD50 [29]: > 1000 mg/kg

Polymyxin B
survival rate of mice [30]: 100%

Triton X-100
hemolysis rate [31]: 100%
